Experimental data from PubChem BioAssay AID2305 (GlaxoSmithKline (GSK), 2010).

These molecules were tested on P. falciparum 3D7 growth, pLDH absorbance (assay: P. falciparum 3D7 growth inhibition, dose response, strain 3D7 (AID 2305)).

Row | SMILES | IC50
1 | N#Cc1ccc2c(c1)CN(C1CCC(NC(=O)C3=Cc4cc(Cl)ccc4OC3)CC1)CCC2 (stereo not drawn) | 1330 nM
2 | CC(Cc1ccc(OCc2ccccc2)cc1)Nc1nc2ccccc2c(=O)[nH]1 (stereo not drawn) | 570 nM
3 | COc1cccc(CCc2cccc(CNC(C)=O)c2)c1 | 1040 nM
4 | Cc1ccccc1C1CCN(C2CCC(NC(=O)c3cc(-c4ccc(Cl)cc4)cs3)CC2)CC1 (stereo not drawn) | 160 nM
5 | COc1ccc(NC(=O)[C@H](Cc2ccccc2)Nc2cc(C)nc(NCCc3cccnc3)n2)cc1 | 760 nM
6 | COc1ccc2nc(N3CCNCC3)nc(NCCCc3ccccc3)c2c1 | 1000 nM
7 | N=c1n(CCN2CCCCC2)c2ccccc2n1CC(O)c1ccc(Cl)c(Cl)c1 (stereo not drawn) | 320 nM
8 | COc1cc(Cc2cnc(N)nc2N)ccc1OCC(=O)Nc1ccc(C)cc1 | 480 nM
9 | Nc1nc(N)c2c(ccc3c2cnn3Cc2cccnc2)n1 | 50 nM
10 | O=C1[C@H]2C(c3ccc(Cl)c(Cl)c3)N3CC(OCc4ccccc4)CC3(C(=O)O)[C@H]2C(=O)N1c1ccc(Br)cc1 (stereo partly drawn) | 340 nM
11 | O=C(Nc1cccc(CN2CCCN(Cc3ccc(O)cc3)CC2)c1)c1ccc2ccccc2c1 | 370 nM
12 | COc1ccc(N2CCN(CCCCNC(=O)c3ccc(NC(=O)c4ccc(OC(F)(F)F)cc4)cc3)CC2)c(OC)c1 | 580 nM
13 | CCOc1cc(C)ccc1C1CCN(CCN2CCC(CNC(=O)c3ccc(-c4ccc(C(F)(F)F)cc4)cc3)CC2)CC1 | 700 nM
14 | Cc1ccc(CCC(C)NCC(O)c2cccc(C(F)(F)F)c2)cc1 (stereo not drawn) | 560 nM
15 | COc1ccc2[nH]cc(C3CCN(CCC4CCN(C(=O)/C=C/c5ccc(Cl)c(Cl)c5)CC4)CC3)c2c1 | 860 nM
16 | CCn1c(-c2nonc2N)nc2c(-c3cccc(NC(=O)Nc4ccc5c(c4)CCC5)c3)ncc(OCCCN)c21 | 780 nM
17 | CN(C)c1ccc(N2C(N)=NC(N)=NC23CCCC3)cc1 | 930 nM
18 | CN(C)CCN1CCN(Cc2ccc(-c3cccc(-c4nc5ccccc5[nH]4)c3)cc2)CC1 | 200 nM
19 | Brc1cc2c(cc1C=NNc1nc(Nc3ccccc3)nc(Nc3ccccc3)n1)OCO2 | 800 nM
20 | CCc1c[nH]c2c(N3CCCS3(=O)=O)cc(C(=O)N[C@@H](Cc3ccccc3)[C@H](O)CNC(C)(C)CCCC(C)C)cc12 | 670 nM
21 | O=C(Cn1c(SCc2cccc(F)c2F)cc(=O)c2ccccc21)N(CCN1CCCCC1)Cc1ccc(-c2ccc(C(F)(F)F)cc2)cc1 | 660 nM
22 | CC(=O)Nc1nc(C(=O)Nc2ccc(-c3ccc(-c4nc5ccc(F)cc5[nH]4)cc3)cc2)cs1 | 460 nM
23 | O=C(/C=C/c1ccc(Cl)c(Cl)c1)NC1CCC(CN2CCC(c3coc4ccccc34)CC2)CC1 (stereo not drawn) | 830 nM
24 | NCc1ccc(-c2ccccc2CNC2CCN(Cc3ccccc3)CC2)cc1 | 770 nM

Row | SMILES | IC50
25 | O=C(Cn1c(CCc2cccc(F)c2F)cc(=O)c2ccccc21)N(Cc1ccc(-c2ccc(C(F)(F)F)cc2)cc1)C1CCN(CCN2CCOCC2)CC1 | 720 nM
26 | COc1cc2ncnc(Nc3ccc(OCc4ccccc4)c(C(F)(F)F)c3)c2cc1OC | 250 nM
27 | COc1cc(NC(=O)c2sc(-c3ccc(Cl)cc3)cc2NC(=O)c2cccc(N(C)C)c2)ccc1OCCN1CCCC1 | 710 nM
28 | Cc1ccoc1C(=O)Nc1ccc(-c2cccc(-c3nc4c(C)cccc4[nH]3)c2)cc1 | 730 nM
29 | CS(=O)(=O)c1ccc(CNCc2ccc(-c3ccc(-c4nc5ccc(C(F)(F)F)cc5[nH]4)s3)cc2)cc1 | 160 nM
30 | COc1ccc2ncc(F)c(CCN3CCC(NCc4cc(F)c5c(c4)OCCO5)CC3)c2n1 | 350 nM
31 | Nc1nc(N)c2cc(Sc3ccc4ccccc4c3)ccc2n1 | 20 nM
32 | COc1ccccc1CCNc1nc(C)cc(N[C@@H](Cc2ccccc2)C(=O)NCc2cccs2)n1 | 630 nM
33 | CN(C)CC(O)C(c1ccccc1)c1cccc(Br)c1 (stereo not drawn) | 160 nM
34 | NC(=O)c1ccccc1OCC(=O)Nc1cccc(-c2ccc(-c3nc4ccccc4[nH]3)cc2)c1 | 790 nM
35 | COc1ccc(CNC2CCN(C)CC2)cc1-c1ccc(S(=O)(=O)NCCc2ccccn2)c(F)c1 | 820 nM
36 | CS(=O)(=O)CCNCc1cccc(-c2cc3c(Nc4ccc(OCc5ccccc5)cc4)ncnc3cn2)c1 | 730 nM
37 | CC1CN(Cc2csc(Nc3ccccc3)n2)CC(C)O1 (stereo not drawn) | 1020 nM
38 | O=[N+]([O-])c1ccc(NC(=NC2CCCc3ccccc32)Nc2ccccc2Br)c(O)c1 (stereo not drawn) | 920 nM
39 | CCN1CCC(N(Cc2ccc(-c3ccc(C(F)(F)F)cc3)cc2)C(=O)Cn2c(CCc3cccc(F)c3F)cc(=O)c3ccc(OCc4ccccc4)cc32)CC1 | 370 nM
40 | Cc1nc2nc(N)nc(N)c2c(C)c1Cc1cccc(C(F)(F)F)c1 | 1290 nM
41 | NC[C@H](CC1CCCCC1)NC(=O)c1ccc(-c2ccnc3[nH]ccc23)s1 | 950 nM
42 | CCc1nc(N)nc(N)c1CCCOc1ccccc1Cl | 100 nM
43 | CN(C)C1CCN(Cc2ccc(N3CCN(Cc4cccc5[nH]ccc45)CC3)nc2)CC1 | 1530 nM
44 | COC(=O)c1cccc(CNCc2cccc(-c3ccc(-c4nc5ccc(C(F)(F)F)cc5[nH]4)cc3)c2)c1 | 260 nM
45 | COc1ccc(C(=O)CCC(=O)N(Cc2ccc(-c3ccc(CNCCc4ccc(S(C)(=O)=O)cc4)cn3)cc2)Cc2ccc3c(c2)OCO3)cc1F | 940 nM
46 | CCOc1cc(C(=O)NC2CC(C)(C)NC(C)(C)C2)ccc1-c1cc2cc(Cl)c(Cl)cc2[nH]1 | 770 nM
47 | CC(C)CNc1nc(N)nc2ccc3c(ccn3CC(C)C)c12 | 650 nM
48 | O=C(c1ccc(Cl)c(Cl)c1)N1CCc2c([nH]c3ccccc23)C1CN1CCCC1 (stereo not drawn) | 830 nM

Row | SMILES | IC50
49 | COc1ccc(CNC(=O)c2cnc3c(O)cccc3c2Nc2cccc(NC(=O)c3ccc(F)cc3)c2)cc1 | 1000 nM
50 | CCNc1cc(C(=O)N[C@@H](Cc2ccccc2)[C@H](O)CNC(C)(C)CC(C)(C)C)c(F)c(N2CCCCS2(=O)=O)c1 | 1010 nM
51 | CCc1cc2c(N)nc(N)nc2nc1-c1ccccc1 | 950 nM
52 | CCOc1ccc(-c2n[nH]c(C(F)(F)F)c2-c2ccccc2OC)c(O)c1 | 1140 nM
53 | CN(C)CCCN(C)c1cccc2c1nc(-c1cccnc1)n2CCNCc1ccccc1 | 1390 nM
54 | O=C(Nc1cccc(CN2CCCN(Cc3cccnc3)CC2)c1)c1ccc(Cl)c(Cl)c1 | 930 nM
55 | O=C(Nc1cccc(-c2nn3ccccc3c2-c2ccnc(Nc3ccc(-c4cc[nH]n4)cc3)n2)c1)c1c(F)cccc1F | 190 nM
56 | CCOc1ccc(C2CCN(CCCCNC(=O)c3ccc(NC(=O)c4ccc(Cl)cc4)cc3)CC2)c(Cl)c1 | 730 nM
57 | COc1ccc2ccccc2c1CCCCN1CCN(CC(c2ccc(F)cc2)N2CCC2)CC1 (stereo not drawn) | 760 nM
58 | CN(Cc1cccc(O)c1)C1CCN(c2cc(NC(=O)c3cccc(F)c3)ccn2)CC1 | 850 nM
59 | c1cc2nc(CCCc3nc4ccc(C5=N[C@H]6CCCC[C@H]6N5)cc4[nH]3)[nH]c2cc1C1=N[C@@H]2CCCC[C@@H]2N1 | 1240 nM
60 | O=C(Nc1ccc([N+](=O)[O-])cc1Cl)c1cc2ccccc2cc1O | 1010 nM
61 | COc1ccc(C(C(=O)NC2CCN(C[C@H](O)c3ccnc4ccc(OC)cc34)CC2)N2CCN(Cc3ccccc3)CC2)cc1 (stereo partly drawn) | 150 nM
62 | CC(=O)Nc1cccc(C(=O)Nc2cccc(-c3ccc(-c4nc5ccc(C(F)(F)F)cc5[nH]4)s3)c2)c1 | 650 nM
63 | Cc1ccc(-c2cc(C(=O)Nc3ccc(S(=O)(=O)N4CC(C)OC(C)C4)cc3)[nH]n2)c(O)c1 (stereo not drawn) | 610 nM
64 | CCN(CC)CCNC(=O)c1ccc(NC(=O)c2oc3c(Cl)cccc3c2C)cc1 | 700 nM
65 | COc1cc(C(=O)NC2CCN(Cc3ccccc3)CC2)ccc1-c1nc2c(Cl)cc(C(F)(F)F)cc2[nH]1 | 670 nM
66 | O=S(=O)(c1ccc(OCc2ccc(Cl)cc2)cc1)c1cc2c(cc1O)CCN(C1CCC1)CC2 | 940 nM
67 | O=C(/C=C/c1ccc(I)cc1)NCCCCCN1CCC(c2c[nH]c3ccc(O)cc23)CC1 | 770 nM
68 | NC1=NC(c2ccccc2)(c2ccccc2)C(=O)N1Cc1ccc(-c2cccnc2)cc1 | 700 nM
69 | ON=C1CCc2cc(-c3nc(-c4ccc(OCCN5CCCCC5)cc4)[nH]c3-c3ccncc3)ccc21 | 800 nM
70 | COC(=O)[C@@H](NC(=O)[C@H](Cc1ccc(OC)c(OC)c1)Nc1ccc(C#N)c2ccccc12)c1ccc(O)cc1 | 750 nM
71 | CCc1cn2c3c(cc(C(=O)N[C@@H](Cc4cccc(F)c4)[C@H](O)CNC4CCCCC4)cc13)N(C)S(=O)(=O)CC2 | 30 nM
72 | COc1ccc(C(=O)N2CCN(c3ccc([N+](=O)[O-])c(NC4CC4)c3)CC2)cc1Br | 800 nM

Row | SMILES | IC50
73 | CN(C)CCOc1cc(NC(=O)/C=C/c2cccc3ccccc23)ccc1I | 1260 nM
74 | CC[C@H]1CN2CC[C@@H]1C[C@H]2[C@H](O)c1cc(N2CCC(O)(c3ccc(Cl)cc3)CC2)nc2ccc(OC)cc12 | 70 nM
75 | Nc1nc(-c2ccccn2)nc(-n2nc(-c3cccc(C(F)(F)F)c3)cc2N)n1 | 1040 nM
76 | Oc1ccc(Nc2nc(N3CCCC3)c3ccccc3n2)cc1 | 270 nM
77 | O=C(Nc1ccc(F)cc1)NC1CCN(c2ccnc3cc(Cl)ccc23)C1 (stereo not drawn) | 220 nM
78 | Cc1cc(NC(=O)[C@@H](Nc2ccc(C#N)c3ccccc23)C2CCCCC2)ccc1F | 890 nM
79 | CN1CCN(CCCNc2ncc3c(-c4ccc(NC(=O)Nc5cc(C(F)(F)F)ccc5F)c(F)c4)nn(C)c3n2)CC1 | 860 nM
80 | Cc1ccc(C(=O)Nc2ccc(Cl)c(N3CCN(CCc4ccccc4)CC3)c2)cc1 | 930 nM
81 | CSc1ccc(CN2CCC(NC(=O)c3ccc(-c4ccc(N(C)C)cc4)s3)CC2)cc1 | 1500 nM
82 | Cc1c(NCCCNCc2cc(Cl)cc(Cl)c2Cl)[nH]c2ccccc2c1=O | 310 nM
83 | COc1ccc(OCc2ccccn2)c(C2CCN(CCCCNC(=O)c3ccc(NC(=O)c4ccc(Cl)cc4)cc3)CC2)c1 | 760 nM
84 | CC(C)(C)c1cc(N=NC(=O)c2ccncc2)cc(C(C)(C)C)c1O | 700 nM
85 | O=C(Nc1cccc(CN2CCCN(Cc3ccccc3)CC2)c1)c1ccc(Cl)c(Cl)c1 | 900 nM
86 | CC1CCC(NC(=O)c2nn(-c3ccc(Cl)cc3)c(=O)c3ccccc23)CC1 (stereo not drawn) | 1080 nM
87 | CC(C)N1CCC(N(Cc2ccc(-c3ccc(C(F)(F)F)cc3)cc2)C(=O)Cn2c(CCc3cccc(F)c3F)cc(=O)c3cn(C)nc32)CC1 | 1170 nM
88 | c1cc2c3c(cccc3c1)NC(CCCCCCCCC1=Nc3cccc4cccc(c34)N1)=N2 | 830 nM
89 | COc1ccc2nc(C)cc(NN=Cc3cc(OC)c(OC)cc3OC)c2c1 | 740 nM
90 | COCCCN=C(N)c1ccc(NC(=O)c2ccc(C(=O)Nc3ccc(C(N)=NCCCOC)cc3)cc2)cc1 | 50 nM
91 | CCC(ON1C(N)=NC(N)=NC1(C)C)c1ccccc1 (stereo not drawn) | 30 nM
92 | CCn1c(-c2nonc2N)nc2c(-c3ccc(CO)o3)ncc(OCCCN)c21 | 1360 nM
93 | COc1cc(C=NNc2ccnc3cc(Cl)ccc23)ccc1O | 130 nM
